Values of other authors in US10730918B2, “Trap 63” (STRAUMANN HOLDING AG, priority 2013, dated 2020).

Tested on: cementoblasts
Conditions: Boabaid et al 2004

| Molecule | effect on cell proliferation | number of cementoblasts in cell culture |
| --- | --- | --- |
| LRAP: leucine-rich amelogenin polypeptide; SEQ ID NO: 4 identical to sequence in Boabaid et al 2004 (MPLPPHPGHPGYINFSYEVLTPLKWYQNMIRHPSLLPDLPLEAWPATDKTKREEVD; sus scrofa domesticus) | not to have any effect | decreased |
| full length amelogenin: full length amelogenin, major constituent of the enamel matrix (protein, UniProt Q99217 1-191, looked up, full-length, full length amelogenin, major constituent of the enamel matrix) MGTWILFACLLGAAFAMPLPPHPGHPGYINFSYEVLTPLKWYQSIRPPYPSYGYEPMGGWLHHQIIPVLSQQHPPTHTLQPHHHIPVVPAQQPVIPQQPMMPVPGQHSMTPIQHHQPNLPPPAQQPYQPQPVQPQPHQPMQPQPPVHPMQPLPPQPPLPPMFPMQPLPPMLPDLTLEAWPSTDKTKREEVD | no reported effect | – |
